Laboratory results as given in patent US20190390245A1, “CYTOTOXICITY TEST METHOD FOR MEDICAL DEVICE” (ALCON INC., priority 2018, published 2019).
Like-named read-outs stand apart in the source and are kept apart here.

Tests used:
L929 cells [1] = test: ISO/USP (traditional) agar overlay cytotoxicity test; type: cell-based, Mouse
Method: The ISO 10993-5 (2009) qualitative agar diffusion/overlay assay is appropriate for high density materials and liquids. This assay is conducted by adding a thin layer of nutrient-supplemented agar over the near confluent monolayer of L929 cells, and the test material (a solid sample, or an extract of the test material or liquid placed on filter paper) is placed on top of the agar layer. The cushioning effect of an agar layer protects the L929 cells from the potential mechanical damage by the test material's movement. Cells are examined after 24-hours incubation for signs of toxicity and stained with neutral red dye to differentiate between the viable, stressed or lysed cells. Cytotoxic leachates diffuse into the cell layer through the agar, and toxicity is indicated by a loss of viable cells around the test device as evidenced by area devoid of stain under and around the test material. The disadvantage of agar overlay assay is that potential cytotoxic leachates may bind to the agar and not be able to diffuse across the plate as compared to the liquid medium; thus, the cells are not fully exposed to the test substance.

L929 cells [2] = conditions: concentration known to be toxic to the rabbit eyes; Bruinink and Luginbuehl, 2012; cited from earlier work
L929 cells [3] = test: Two layer embedded modified agar overlay cytotoxicity test
Method: The test article meets the ‘pass’ criteria of the test if the biological response is less than or equal to grade 2 (mild).
1×MEMAOM was used as the nutrient supplement agar at 2 mL/well.
B) Two layer embedded modified agar overlay. The test materials were added after the base nutrient agar solidified, and 2.0 mL of L929 (1.8×10^6 cells/mL) cell agar mixture described above was added on top of the test materials to fully cover the test materials with a final cell concentration of 3.6×10^6 cells/well. After 24 hours of incubation, cells were examined as described in ISO/USP agar overlay method.
C) For the extended study duration, cells were prepared as described in A) and B). Reference material A and no treatment were evaluated for up to 72-hour incubation.
D) two layer modified and embedded modified agar overlay for liquid materials. Paper filter discs (100 μL of either 100% Ethanol or 2000 ppm BAK) were prepared as described in A) and B).

| Compound | Grade, color zone formation, ISO/USP Agar Overlay (L929 cells [1]) | Cytotoxicity responses, traditional agar overlay method (previous observations) (L929 cells [2]) | Color zone formation (observation), Two layer embedded Modified Agar Overlay (L929 cells [3]) | Color zone formation (observation), Two layer embedded Modified Agar Overlay (L929 cells [3]; Table 4, liquids, 100 μL on paper filter) |
| --- | --- | --- | --- | --- |
| Benzalkonium Chloride [BAK] | Grade 0 | failed to show cytotoxicity responses | no zone | – |
| CCO [Ethanol, ethanol] | – | – | – | no zone |
